US9028845B2, “Chimeric immunomodulatory compounds and methods of using the same-IV” (Dynavax Technologies Corporation, priority 2001, dated 2015)

Legend:
[1] = system: human PBMCs; experiment: Human PBMC cytokine response assay (IFN-γ and IFN-α in cell-free medium by ELISA), with or without cPLGA;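 on IFN-α (pg/ml) mean: 20 µg/mL compound for 24 hours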;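 on IFN-γ (pg/ml) mean: 20 µg/mL compound for 24 hours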; format: cell-based; conditions: for IFN-α induction (FIG. 10), in words: PBMCs from 8 donors, 20 μg/ml; for IFN-α induction (FIG. 10), in words / IFN-γ (pg/ml) 28065 / IFN-α (pg/ml) 28065 / IFN-α (pg/ml) 28066 / IFN-γ (pg/ml) 28066 / IFN-α (pg/ml) 28067 / IFN-γ (pg/ml) 28067 / IFN-α (pg/ml) 28068 / IFN-γ (pg/ml) 28068 / IFN-α (pg/ml) mean / IFN-γ (pg/ml) mean: 24 h; for IFN-γ (pg/ml) 28065: donor 28065 (high background), 1000 = outside assay limits; for IFN-γ (pg/ml) 28065 / IFN-α (pg/ml) 28065 / IFN-α (pg/ml) 28066 / IFN-γ (pg/ml) 28066 / IFN-α (pg/ml) 28067 / IFN-γ (pg/ml) 28067 / IFN-α (pg/ml) 28068 / IFN-γ (pg/ml) 28068 / IFN-α (pg/ml) mean / IFN-γ (pg/ml) mean: + PLGA = premixed with 100 μg/ml cPLGA; for IFN-α (pg/ml) 28065: donor 28065; for IFN-α (pg/ml) 28066 / IFN-γ (pg/ml) 28066: donor 28066; for IFN-α (pg/ml) 28067 / IFN-γ (pg/ml) 28067: donor 28067; for IFN-α (pg/ml) 28068 / IFN-γ (pg/ml) 28068: donor 28068; for IFN-α (pg/ml) mean / IFN-γ (pg/ml) mean: mean of donors 28065-28068
[2] = system: CD19+ B cells; experiment: Human B cell proliferation assay (3H-thymidine incorporation); conditions: for B cell proliferation (FIG. 11), in words: purified human B cells, 5 μg/ml, 96 h; for cpm1 / cpm2 / cpm3 / mean cpm / mean of both: B cells, 2 μg/ml, Experiment B; for mean of both: mean of donors 121 and 194
[3] = Table 24, mean of donors 28234-28237
[4] = Table 25, mean of donors 28250-28253

## (5′-TCGACGT-3′-HEG)2-glycerol-HEG-5′-TCGACGT-3′ [Compound C-101]
[1]; Example 58, 0.8 ug/ml, donor 1
  IFN-α: 52 pg/mL
[1]; Example 58, 0.8 ug/ml, donor 2
  IFN-α: 52 pg/mL
[1]; Example 58, 0.8 ug/ml, donor 3
  IFN-α: 52 pg/mL
[1]; Example 58, 0.8 ug/ml, donor 4
  IFN-α: 52 pg/mL
[1]; Example 58, 0.8 ug/ml, mean of four individuals
  IFN-α mean: 52 pg/mL
[1]; Example 58, 4 ug/ml, donor 1
  IFN-α: 52 pg/mL
[1]; Example 58, 4 ug/ml, donor 2
  IFN-α: 52 pg/mL
[1]; Example 58, 4 ug/ml, donor 3
  IFN-α: 59 pg/mL
[1]; Example 58, 4 ug/ml, donor 4
  IFN-α: 204 pg/mL
[1]; Example 58, 4 ug/ml, mean of four individuals
  IFN-α mean: 92 pg/mL
[1]; Example 58, 20 ug/ml, donor 1
  IFN-α: 2330 pg/mL
[1]; Example 58, 20 ug/ml, donor 2
  IFN-α: 109 pg/mL
[1]; Example 58, 20 ug/ml, donor 3
  IFN-α: 215 pg/mL
[1]; Example 58, 20 ug/ml, donor 4
  IFN-α: 157 pg/mL
[1]; Example 58, 20 ug/ml, mean of four individuals
  IFN-α mean: 703 pg/mL
[1]; Example 59, 0.8 ug/ml, donor 48
  IFN-α: 102 pg/mL
[1]; Example 59, 0.8 ug/ml, donor 177
  IFN-α: 102 pg/mL
[1]; Example 59, 0.8 ug/ml, donor 272
  IFN-α: 185 pg/mL
[1]; Example 59, 0.8 ug/ml, donor 273
  IFN-α: 102 pg/mL
[1]; Example 59, 0.8 ug/ml, mean of four donors
  IFN-α mean: 123 pg/mL
[1]; Example 59, 4 ug/ml, donor 48
  IFN-α: 818 pg/mL
[1]; Example 59, 4 ug/ml, donor 177
  IFN-α: 3631 pg/mL
[1]; Example 59, 4 ug/ml, donor 272
  IFN-α: 604 pg/mL
[1]; Example 59, 4 ug/ml, donor 273
  IFN-α: 102 pg/mL
[1]; Example 59, 4 ug/ml, mean of four donors
  IFN-α mean: 1289 pg/mL
[1]; Example 59, 20 ug/ml, donor 48
  IFN-α: 2212 pg/mL
[1]; Example 59, 20 ug/ml, donor 177
  IFN-α: 4277 pg/mL
[1]; Example 59, 20 ug/ml, donor 272
  IFN-α: 642 pg/mL
[1]; Example 59, 20 ug/ml, donor 273
  IFN-α: 102 pg/mL
[1]; Example 59, 20 ug/ml, mean of four donors
  IFN-α mean: 1808 pg/mL
[1]
  IFN-α induction (FIG. 10), in words: induce high levels of IFN-α
[1]; Table 24, donor 28234
  IFN-α: 16 pg/mL
  IFN-γ: 14 pg/mL
[1]; Table 24, donor 28235
  IFN-α: 249 pg/mL
  IFN-γ: 205 pg/mL
[1]; Table 24, donor 28236
  IFN-α: 1354 pg/mL
  IFN-γ: 627 pg/mL
[1]; Table 24, donor 28237
  IFN-α: 8566 pg/mL
  IFN-γ: 2612 pg/mL
[1]; [3]
  IFN-α mean: 2546 pg/mL
  IFN-γ mean: 865 pg/mL
[1]; Table 25, donor 28250
  IFN-a: 540 pg/mL
[1]; Table 25, donor 28250, polynucleotides/spacers at amounts equivalent to the CIC, spacers alone 9 uM
  IFN-g: 224 pg/mL
[1]; Table 25, donor 28251
  IFN-a: 1472 pg/mL
  IFN-g: 63 pg/mL
[1]; Table 25, donor 28252
  IFN-a: 509 pg/mL
  IFN-g: 180 pg/mL
[1]; Table 25, donor 28253
  IFN-a: 2645 pg/mL
  IFN-g: 146 pg/mL
[1]; [4]
  IFN-a mean: 1291 pg/mL
  IFN-g mean: 153 pg/mL
[2]
  B cell proliferation (FIG. 11), in words: induce very little B cell proliferation

## 5′-ACGTTCG-3′-HEG-5′-ACGTTCG-3′-HEG-5′-AGATGAT-3′ [Compound C-24]
[1]; Table 10, donor 28042
  IFN-α: 0 pg/mL
  IFN-γ: 148 pg/mL
[1]; Table 10, donor 28043
  IFN-α: 0 pg/mL
  IFN-γ: 156 pg/mL
[1]; Table 10, donor 28044
  IFN-α: 8 pg/mL
  IFN-γ: 312 pg/mL
[1]; Table 10, donor 28045
  IFN-α: 0 pg/mL
  IFN-γ: 26 pg/mL
[1]; Table 10, mean of donors
  IFN-α mean: 2 pg/mL
  IFN-γ mean: 161 pg/mL
[1]; 20 ug/ml
  IFN-γ (pg/ml) 28065: 337 pg/mL
  IFN-α (pg/ml) 28065: 28 pg/mL
  IFN-α (pg/ml) 28066: 0 pg/mL
  IFN-γ (pg/ml) 28066: 2 pg/mL
  IFN-α (pg/ml) 28067: 8 pg/mL
  IFN-γ (pg/ml) 28067: 4 pg/mL
  IFN-α (pg/ml) 28068: 67 pg/mL
  IFN-γ (pg/ml) 28068: 116 pg/mL
  IFN-α (pg/ml) mean: 26 pg/mL
  IFN-γ (pg/ml) mean: 115 pg/mL
[2]; donor 121
  cpm1: 8206 cpm
  cpm2: 6789 cpm
  cpm3: 2799 cpm
[2]; donor 121 mean
  mean cpm: 5931 cpm
[2]; donor 194
  cpm1: 3979 cpm
  cpm2: 3407 cpm
  cpm3: 3468 cpm
[2]; donor 194 mean
  mean cpm: 3618 cpm
[2]
  mean of both: 4775 cpm

## 5′-TCGTCG-3′-C4-5′-ACGTTCG-3′-C4-5′-AGATGAT-3′ [Compound C-17]
[1]; 20 ug/ml
  IFN-γ (pg/ml) 28065: 1000 pg/mL
  IFN-α (pg/ml) 28065: 21 pg/mL
  IFN-α (pg/ml) 28066: 0 pg/mL
  IFN-γ (pg/ml) 28066: 6 pg/mL
  IFN-α (pg/ml) 28067: 22 pg/mL
  IFN-γ (pg/ml) 28067: 32 pg/mL
  IFN-α (pg/ml) 28068: 95 pg/mL
  IFN-γ (pg/ml) 28068: 459 pg/mL
  IFN-α (pg/ml) mean: 34 pg/mL
  IFN-γ (pg/ml) mean: 374 pg/mL
[2]; donor 121
  cpm1: 27975 cpm
  cpm2: 30426 cpm
  cpm3: 9895 cpm
[2]; donor 121 mean
  mean cpm: 22765 cpm
[2]; donor 194
  cpm1: 17467 cpm
  cpm2: 14890 cpm
  cpm3: 10518 cpm
[2]; donor 194 mean
  mean cpm: 14292 cpm
[2]
  mean of both: 18529 cpm

## (5′-TCGACGT-3′-HEG)3-trebler-HEG-5′-TCGACGT-3′ [Compound C-125]
[1]
  IFN-α induction (FIG. 10), in words: induce high levels of IFN-α
[2]
  B cell proliferation (FIG. 11), in words: induce very little B cell proliferation

## (5′-TCGTTCG-3′-HEG)2-glycerol-HEG-5′-TCGTTCG-3′ [Compound C-158]
[1]
  IFN-α induction (FIG. 10), in words: induce high levels of IFN-α
[2]
  B cell proliferation (FIG. 11), in words: induce B cells to proliferate
